Patent US7560473B2 (Institute of Pharmacology and Toxicology Academy of …, priority 2001, dated 2009)

Tests used:
[1] = test system: spontaneously hypertensive rats; experiment: Acute antihypertensive effects in conscious spontaneously hypertensive rats; format: in vivo; conditions: for SBP at 1 h after administration / heart rates at 1 h / SBP at 3 h after administration / heart rates at 3 h / SBP at 5 h after administration / heart rates at 5 h / SBP at 9 h after administration / heart rates at 9 h / SBP at 12 h after administration / heart rates at 12 h / SBP at 24 h after administration / heart rates at 24 h / SBP base value / heart rates base value: po mg/kg: compound 1 3, pinacidil 3, nifedipine 10, bisoprolol 60, captopril 40, means ± SD, 9-13 rats; for heart rates at 1 h / heart rates at 3 h / heart rates at 5 h / heart rates at 9 h / heart rates at 12 h / heart rates at 24 h / heart rates base value: in bpm (unit assumed); for SBP base value / heart rates base value: base value before administration
Description: Biological activity experiment 2. The acute antihypertensive effects of compound 1 in conscious spontaneously hypertensive rats.
The methods of biological activity experiment 2 were described by Long Chao-Liang et al: Long Chao-Liang, Wang Hai, Xiao Wen-Bin. Effects of pinacidil on, hypertensive vascular remodeling. Chin J Pharmacol Toxicol 1997; 11(1):42-46.

[2] = test system: rats anesthetized with pentobarbital sodium; experiment: Antagonism of glibenclamide on the cardiovascular effects in anesthetized rats; format: in vivo, Wistar rats; conditions: for +dp/dtmax / DBP / HR / LVSP / MBP / SB / Vpm / −dp/dtmax: iv mg/kg: pinacidil 1.0, nifedipine 1.0, compound 1 0.5, means ± SE; for antagonism of the cardiovascular effects by glibenclamide (in words): glibenclamide 20 mg/kg iv pretreatment
Experimental: The methods of biological activity experiment 1 were as follows: Male Wistar rats, weighing 280±30 g were purchased from the experimental animal center of Academy of Military Medical Sciences. Rats were anesthetized with pentobarbital sodium (45 mg/kg) by peritoneal injection. A PE50 polyethylene catheter was inserted into the left ventricle through right carotid artery for cardiac function measurement with a pressure energe exchanger, wherein the signal is put into a SMUP-PC biosignal processing system. Cardiac functional parameters such as HR, LVSP, +dp/dtmax, −dp/dtmax and Vpm were recorded. Another two PE50 polyethylene catheters were inserted into the right femoral artery and vein respectively for blood pressure measurement wherein the artery cathether was linked to a four-channel physiology recorder (RM-6000) through a MPU-0.5A Type pressure energe exchanger, which recorded SBP, DBP and MBP, while the vein catheter was used for compound administration. The methods were described by Liu Wei et al: Liu Wei, Wang Hai, Xiao Wen-Bin.
The methods of Biological activity experiment 3 were the same as those described in the biological activity experiment 1.

[3] = target: T1, ATP-sensitive potassium channels in vascular smooth muscles (Rattus norvegicus, UniProt Q63563); experiment: Inhibition of specific binding of [^3H]P1075 in endothelium-removed rat aorta; set-up: species or system Wistar rat; conditions: for IC50 / Ki: [^3H] P1075 5 nmol L^−1, 90 minutes at 37° C., endothelium-removed rat aorta; for Ki: read-out: pKi for inhibition of specific binding of [^3H]P1075 (converted)
T1 construct: The aorta was cut into about 3-5 mm arterial rings and the vascular endothelium was scraped off; from tissue; host or cells: endothelium-removed aortic rings of male Wistar rats

[4] = target: T1, ATP-sensitive potassium channels in vascular smooth muscles; experiment: Association and dissociation kinetics of [^3H]glibenclamide binding in aortic rings; set-up: species or system Wistar rat; conditions: drug M: compound 1 10^−4, pinacidil 10^−4, ATP 10^−2, ADP 10^−3, UDP 5 × 10^−3, Ade 10^−3; for Dissociation kinetics k2 of [^3H]glibenclamide binding / Association kinetics k1 of [^3H]glibenclamide binding / Association kinetics kobs of [^3H]glibenclamide binding / Association kinetics kA of [^3H]glibenclamide binding: 25° C.; for Dissociation kinetics k2 of [^3H]glibenclamide binding: control 0.72 ± 0.11; for Dissociation kinetics Kd of [^3H]glibenclamide binding in presence of the drug: Kd of the radioligand, not of the drug, control 0.55 ± 0.14; for Association kinetics k1 of [^3H]glibenclamide binding / Association kinetics kobs of [^3H]glibenclamide binding / Association kinetics kA of [^3H]glibenclamide binding: [^3H]-glibenclamide 3 nM; for Association kinetics k1 of [^3H]glibenclamide binding: control 1.31 ± 0.14; for Association kinetics kobs of [^3H]glibenclamide binding: control 4.65 ± 0.37, means ± SD, n = 4~10; for Association kinetics kA of [^3H]glibenclamide binding: control 181.90 ± 46.90
Description: Biological activity experiment 4. Allosteric regulation of novel compounds on ATP-sensitive potassium channels in vascular smooth muscles.
To study the allosteric regulation of compound 1 on ATP-sensitive potassium channels in vascular smooth muscles, the radio-labled-ligand was used in the biological activity experiment 4.
1. The allosteric regulation of compound 1 on the binding sites for the selective KATP blocker glibenclamide in vascular smooth muscles was studied as follows: After decapitated, the male Wistar rat (340±20 g) was immediately incised open the thoracic cavity. The aorta was dissected and immersed in the 4° C. buffer containing 10 mM HEPES to wash off the blood, then carefully extirpated the fat, peripheral connective tissues and thrombus. The aorta was cut into about 3-5 mm arterial rings and the vascular endothelium was scraped off with wet tampon. The arterial rings were blotted, weighted and transferred into the tubes containing proper amount of ice colded physiological saline buffer. […] At 5,10,15,20,30,60,90 and 120 min after incubation, 9 mL ice colded Tris buffer (50 mM) was added to terminate the reaction. After washing off the free and bound [^3H]-glibenclamide, the aorta was blotted, transferred to a scintillator, added 50 uL 30% H2O2 and reacted for 2 h at 80° C. After cooling, 2.5 mL ethyl glycol and 5 mL 1% B-BPD xylene were added in sequence, kept stationary for 8 h and measured under a scintillometer for cpm value. The resulting data were fit into a regression line with In[BEQ/(BEQ-Bt)]vs.t and the parameters for association kinetics were obtained. In the disassociation kinetics experiments, the aorta treated as described above and [^3H]-glibenclamide were incubated for 60 min at 25° C., and then 30 uM glibenclamide was added. 0,5,15,30,60,90 and 120 min later, the cpm values for the complex of [^3H]-glibenclamide and KATP were measured. The resulting data were fit into a regression line with In(B/BEQ)]vs.t and the parameters for disassociation kinetics were obtained. 2. The allosteric regulation of compound 1 on the binding sites for the selective KATP activator P1075 in vascular smooth muscles was studied with the method as described above, but some conditions should be changed as follows: the incubation temperature was 37° C. instead of 25° C.;P1075 was used instead of glibenclamide; In the association kinetics experiments, the time points for sampling were 5,10,15,20,30,45,60 and 90 min, while in the disassociation kinetics experiments, that were 1,3,5,10,20,30,45 and 60 min. Biological activity experiment 5. The effects of compound 1 on the specific binding of high selective activator [^3H]P1075 with ATP-sensitive potassium channels in vascular smooth muscles.

[5] = A: after administration (30 min after pinacidil, 10 min nifedipine, 15 min compound 1), glibenclamide 20 iv pretreatment
[6] = B: before administration, glibenclamide 20 iv pretreatment ten minutes

T1 sequence (Q63563 1-1545 isoform Q63563-2): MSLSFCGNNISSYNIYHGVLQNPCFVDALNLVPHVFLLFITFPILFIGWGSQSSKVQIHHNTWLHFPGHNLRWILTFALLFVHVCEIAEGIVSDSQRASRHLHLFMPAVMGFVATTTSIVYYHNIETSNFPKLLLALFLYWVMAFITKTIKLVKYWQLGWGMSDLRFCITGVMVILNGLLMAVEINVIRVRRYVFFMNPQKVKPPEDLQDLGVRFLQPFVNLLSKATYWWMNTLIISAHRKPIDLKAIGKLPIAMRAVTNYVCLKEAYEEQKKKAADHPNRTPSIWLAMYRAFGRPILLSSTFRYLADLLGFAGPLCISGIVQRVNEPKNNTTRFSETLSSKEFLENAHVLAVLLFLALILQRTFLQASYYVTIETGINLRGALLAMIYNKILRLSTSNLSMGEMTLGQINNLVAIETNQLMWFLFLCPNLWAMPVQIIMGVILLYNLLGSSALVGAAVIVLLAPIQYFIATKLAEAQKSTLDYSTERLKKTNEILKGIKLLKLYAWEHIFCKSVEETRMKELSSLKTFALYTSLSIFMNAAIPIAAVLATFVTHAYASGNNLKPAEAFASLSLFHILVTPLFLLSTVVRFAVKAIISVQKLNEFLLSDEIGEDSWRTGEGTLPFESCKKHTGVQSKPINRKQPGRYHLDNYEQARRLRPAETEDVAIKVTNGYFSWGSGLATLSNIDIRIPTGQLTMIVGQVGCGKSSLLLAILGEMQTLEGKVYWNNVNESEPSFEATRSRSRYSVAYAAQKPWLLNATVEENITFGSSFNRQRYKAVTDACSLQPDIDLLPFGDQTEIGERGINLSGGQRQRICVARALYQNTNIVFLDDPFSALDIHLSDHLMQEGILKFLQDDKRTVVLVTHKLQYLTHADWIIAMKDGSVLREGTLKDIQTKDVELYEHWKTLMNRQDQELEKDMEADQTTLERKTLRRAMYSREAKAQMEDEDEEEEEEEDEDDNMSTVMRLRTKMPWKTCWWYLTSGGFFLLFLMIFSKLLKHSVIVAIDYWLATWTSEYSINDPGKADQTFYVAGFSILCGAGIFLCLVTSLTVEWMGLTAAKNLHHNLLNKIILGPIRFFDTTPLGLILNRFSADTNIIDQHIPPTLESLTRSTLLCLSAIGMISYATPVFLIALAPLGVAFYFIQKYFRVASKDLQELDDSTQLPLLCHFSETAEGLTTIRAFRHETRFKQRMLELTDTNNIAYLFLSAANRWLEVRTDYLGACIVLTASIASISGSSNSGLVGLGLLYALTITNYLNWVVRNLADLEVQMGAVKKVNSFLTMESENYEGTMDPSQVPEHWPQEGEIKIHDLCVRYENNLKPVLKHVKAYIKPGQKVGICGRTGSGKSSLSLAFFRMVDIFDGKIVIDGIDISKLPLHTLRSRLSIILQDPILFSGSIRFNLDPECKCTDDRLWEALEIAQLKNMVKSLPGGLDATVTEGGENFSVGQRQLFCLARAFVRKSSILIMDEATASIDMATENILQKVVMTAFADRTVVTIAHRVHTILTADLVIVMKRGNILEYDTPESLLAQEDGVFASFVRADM
T1 sequence (Q63664 whole entry partner): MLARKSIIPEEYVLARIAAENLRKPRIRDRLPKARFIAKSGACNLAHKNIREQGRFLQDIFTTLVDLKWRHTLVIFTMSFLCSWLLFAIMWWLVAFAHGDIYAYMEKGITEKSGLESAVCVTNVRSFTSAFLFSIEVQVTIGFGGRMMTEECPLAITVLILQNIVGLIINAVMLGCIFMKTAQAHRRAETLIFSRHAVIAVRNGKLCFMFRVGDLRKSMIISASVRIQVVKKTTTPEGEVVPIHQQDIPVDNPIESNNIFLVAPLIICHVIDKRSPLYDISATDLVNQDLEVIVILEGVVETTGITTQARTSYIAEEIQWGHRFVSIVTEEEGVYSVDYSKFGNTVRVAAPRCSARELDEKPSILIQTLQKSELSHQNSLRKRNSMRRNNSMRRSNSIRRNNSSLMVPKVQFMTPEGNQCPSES

CC(C)NC(C)(C)C(C)C [compound 1, N-(1-methylethyl)-2,3-dimethyl-2-butylamine]
SBP at 1 h after administration [1]: 227 ± 12 mmHg
heart rates at 1 h [1]: 414 ± 27
SBP at 3 h after administration [1]: 218 ± 7 mmHg
heart rates at 3 h [1]: 412 ± 27
SBP at 5 h after administration [1]: 215 ± 15 mmHg
heart rates at 5 h [1]: 408 ± 25
SBP at 9 h after administration [1]: 229 ± 8 mmHg
heart rates at 9 h [1]: 407 ± 21
SBP at 12 h after administration [1]: 243 ± 7 mmHg
heart rates at 12 h [1]: 413 ± 15
SBP at 24 h after administration [1]: 244 ± 9 mmHg
heart rates at 24 h [1]: 417 ± 12
SBP base value [1]: 246 ± 11 mmHg
heart rates base value [1]: 419 ± 20
duration of antihypertensive action ([1]; oral administration, spontaneously hypertensive rats): 9 h
+dp/dtmax [2, 5]: 672 ± 36 kPa/a
DBP [2, 5]: 77 ± 9 mmHg
HR [2, 5]: 357 ± 18 bpm
LVSP [2, 5]: 133 ± 6 mmHg
MBP [2, 5]: 86 ± 9 mmHg
SB [2, 5]: 105 ± 10 mmHg
Vpm [2, 5]: 2.7 ± 03 /a
−dp/dtmax [2, 5]: 507 ± 39 kPa/a
+dp/dtmax [2, 6]: 978 ± 54 kPa/a
DBP [2, 6]: 98 ± 7 mmHg
HR [2, 6]: 394 ± 13 bpm
LVSP [2, 6]: 180 ± 10 mmHg
MBP [2, 6]: 110 ± 7 mmHg
SB [2, 6]: 134 ± 8 mmHg
Vpm [2, 6]: 3.3 ± 0.2 /a
−dp/dtmax [2, 6]: 819 ± 56 kPa/a
antagonism of the cardiovascular effects by glibenclamide (in words) [2]: could be antagnized by glibenclamide
IC50 [3]: 355 ± 53.7 nM
Ki [3]: 355 nM
competitive inhibition of [^3H] P1075 binding, times weaker than that of P1075 ([3]; relative to P1075): 39 times
competitive inhibition of [^3H] P1075 binding, times stronger than that of glibenclamide ([3]; relative to glibenclamide): 166 times
competitive inhibition of [^3H] P1075 binding, times weaker than that of pinacidil ([3]; relative to pinacidil): 1.8 times
Dissociation kinetics k2 of [^3H]glibenclamide binding [4]: 1.02 ± 0.14 ×10^2 nM^−1 · min^−1
Dissociation kinetics Kd of [^3H]glibenclamide binding in presence of the drug [4]: 1.64 ± 0.69 nM
Association kinetics k1 of [^3H]glibenclamide binding [4]: 0.62 ± 0.25 ×10^−2nM^−1 · min^−1
Association kinetics kobs of [^3H]glibenclamide binding [4]: 2.90 ± 0.74 ×10^−2nM^−1 · min^−1
Association kinetics kA of [^3H]glibenclamide binding [4]: 61.04 ± 25.89 ×10^−2nM^−1 · min^−1

CC(N/C(=N\C#N)Nc1ccncc1)C(C)(C)C (centres unmarked) [pinacidil]
SBP at 1 h after administration [1]: 208 ± 5 mmHg
heart rates at 1 h [1]: 421 ± 17
SBP at 3 h after administration [1]: 236 ± 5 mmHg
heart rates at 3 h [1]: 400 ± 15
SBP at 5 h after administration [1]: 241 ± 4 mmHg
heart rates at 5 h [1]: 354 ± 14
SBP at 9 h after administration [1]: 242 ± 5 mmHg
heart rates at 9 h [1]: 365 ± 16
SBP at 12 h after administration [1]: 244 ± 5 mmHg
heart rates at 12 h [1]: 352 ± 20
SBP at 24 h after administration [1]: 244 ± 5 mmHg
heart rates at 24 h [1]: 365 ± 15
SBP base value [1]: 242 ± 5 mmHg
heart rates base value [1]: 351 ± 19
+dp/dtmax [2, 5]: 571 ± 33 kPa/a
DBP [2, 5]: 67 ± 6 mmHg
HR [2, 5]: 317 ± 25 bpm
LVSP [2, 5]: 111 ± 9 mmHg
MBP [2, 5]: 76 ± 7 mmHg
SB [2, 5]: 91 ± 8 mmHg
Vpm [2, 5]: 4.1 ± 0.5 /a
−dp/dtmax [2, 5]: 447 ± 73 kPa/a
+dp/dtmax [2, 6]: 673 ± 28 kPa/a
DBP [2, 6]: 92 ± 5 mmHg
HR [2, 6]: 353 ± 17 bpm
LVSP [2, 6]: 124 ± 6 mmHg
MBP [2, 6]: 104 ± 5 mmHg
SB [2, 6]: 128 ± 5 mmHg
Vpm [2, 6]: 4.3 ± 0.5 /a
−dp/dtmax [2, 6]: 536 ± 42 kPa/a
antagonism of the cardiovascular effects by glibenclamide (in words) [2]: could aslo block
IC50 [3]: 200 ± 43.6 nM
Ki [3]: 200 nM
Dissociation kinetics k2 of [^3H]glibenclamide binding [4]: 1.15 ± 0.27 ×10^2 nM^−1 · min^−1
Dissociation kinetics Kd of [^3H]glibenclamide binding in presence of the drug [4]: 2.95 ± 0.95 nM
Association kinetics k1 of [^3H]glibenclamide binding [4]: 0.39 ± 0.24 ×10^−2nM^−1 · min^−1
Association kinetics kobs of [^3H]glibenclamide binding [4]: 2.32 ± 0.67 ×10^−2nM^−1 · min^−1
Association kinetics kA of [^3H]glibenclamide binding [4]: 33.91 ± 22.43 ×10^−2nM^−1 · min^−1
